For the assay, the target named is human ERK-2 (Mitogen Activated Kinase 1) (Homo sapiens (Human), UniProt P28482). Briefly: ERK-2 Enzymatic Assay. Format: biochemical. The settings on record: human ERK-2 enzyme 5 nM, 25 μM ATP, S/T17 peptide substrate; isomer = configuration of CR2R3. Here is the method:
Compounds were tested in an enzymatic assay using human ERK-2 (Mitogen Activated Kinase 1), recombinantly expressed as an n-terminal 6-His fusion protein in E. coli and corresponding to aa 8-360. […] Test compounds were diluted in DMSO in 3-fold serial dilutions at 100× final concentrations. […] The data collected from each well was fit to a straight line, and the resulting rates were used to calculate percent of control. Percent of control was plotted against compound concentration, and IC50 values were determined using a four-parameter fit.

human ERK-2 (Mitogen Activated Kinase 1), sequence (P28482 8-360): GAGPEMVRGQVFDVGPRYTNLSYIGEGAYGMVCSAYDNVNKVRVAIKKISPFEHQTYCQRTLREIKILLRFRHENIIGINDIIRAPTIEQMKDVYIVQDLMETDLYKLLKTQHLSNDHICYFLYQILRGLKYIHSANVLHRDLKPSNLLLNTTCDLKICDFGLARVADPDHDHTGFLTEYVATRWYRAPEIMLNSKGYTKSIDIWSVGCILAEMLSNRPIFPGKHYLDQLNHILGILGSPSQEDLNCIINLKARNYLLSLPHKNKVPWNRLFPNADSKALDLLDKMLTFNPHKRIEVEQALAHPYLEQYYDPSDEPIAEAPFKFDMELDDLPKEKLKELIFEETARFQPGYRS

Usually IC50 stands for the midpoint of a concentration-inhibition curve. High values mean weaker potency in that assay, low ones greater potency in that assay. `Cn1nccc1Nc1nccc(-c2cc3n4c(nnc4c2)[C@H](Cc2ccc(Cl)cc2)CCO3)n1` [(R) I-36, 4-(9-(4-chlorobenzyl)-8,9-dihydro-7H-6-oxa-1,2,2a^1-triazabenzo[cd]azulen-4-yl)-N-(1-methyl-1H-pyrazol-5-yl)pyrimidin-2-amine]: the IC50 was determined as 0.69 nM. In turn, `Cn1nccc1Nc1cc(-c2cc3n4c(nnc4c2)[C@@H](Cc2ccccc2)CO3)ccn1` [(R) I-38, 4-(3-benzyl-3,4-dihydro-5-oxa-1,2,2a^1-triazaacenaphthylen-7-yl)-N-(1-methyl-1H-pyrazol-5-yl)pyridin-2-amine] came in with an IC50 of 0.02 nM.

In the case of `CN1C(=O)C[C@@H](Cc2ccc(Cl)cc2)c2nnc3cc(-c4ccnc(Nc5ccnn5C)c4)cc1n23` [(R) I-40, 9-(4-chlorobenzyl)-6-methyl-4-(2-((1-methyl-1H-pyrazol-5-yl)amino)pyridin-4-yl)-8,9-dihydro-1,2,2a^1,6-tetraazabenzo[cd]azulen-7(6H)-one], the IC50 came to 1.35 nM. The value for `Cn1nccc1Nc1nccc(-c2cc3n4c(nnc4c2)[C@@H](Cn2cc(Cl)cn2)CCO3)n1` [(R) I-42, (R)-4-(9-((4-chloro-1H-pyrazol-1-yl)methyl)-8,9-dihydro-7H-6-oxa-1,2,2a^1-triazabenzo[cd]azulen-4-yl)-N-(1-methyl-1H-pyrazol-5-yl)pyrimidin-2-amine] was 0.079 nM; that for `COc1ncccc1C[C@@H]1CN(C)c2cc(-c3ccnc(Nc4ccnn4C)n3)cc3nnc1n23` [(R) I-43, 4-(3-((2-methoxypyridin-3-yl)methyl)-5-methyl-4,5-dihydro-3H-1,2,2a^1,5-tetraazaacenaphthylen-7-yl)-N-(1-methyl-1H-pyrazol-5-yl)pyrimidin-2-amine] was 120 nM; that for `Cn1nccc1Nc1nccc(-c2cc3n4c(nnc4c2)[C@@H](Cc2ccc(F)cc2)CO3)n1` [(R) I-44, 4-(3-(4-fluorobenzyl)-3,4-dihydro-5-oxa-1,2,2a^1-triazaacenaphthylen-7-yl)-N-(1-methyl-1H-pyrazol-5-yl)pyrimidin-2-amine] was less than 0.02 nM.

With `CC(C)C[C@H]1COc2cc(-c3ccnc(Nc4ccnn4C)n3)cc3nnc1n23` [(R) I-45, 4-(3-isobutyl-3,4-dihydro-5-oxa-1,2,2a^1-triazaacenaphthylen-7-yl)-N-(1-methyl-1H-pyrazol-5-yl)pyrimidin-2-amine], the IC50 is less than 0.02 nM. For the compound `COc1ccc(C[C@H]2COc3cc(-c4ccnc(Nc5ccnn5C)n4)cc4nnc2n34)cc1F` [(R) I-46, 4-(3-(3-fluoro-4-methoxybenzyl)-3,4-dihydro-5-oxa-1,2,2a^1-triazaacenaphthylen-7-yl)-N-(1-methyl-1H-pyrazol-5-yl)pyrimidin-2-amine], the IC50 was less than 0.02 nM. Then `Cn1nccc1Nc1cc(-c2cc3n4c(nnc4c2)[C@@H](Cn2cc(Cl)cn2)CCO3)ccn1` [(R) I-47, 4-(9-((4-chloro-1H-pyrazol-1-yl)methyl)-8,9-dihydro-7H-6-oxa-1,2,2a^1-triazabenzo[cd]azulen-4-yl)-N-(1-methyl-1H-pyrazol-5-yl)pyridin-2-amine], with less than 0.02 nM; and `Cn1nccc1Nc1cc(-c2cc3n4c(nnc4c2)[C@@H](Cc2ccc(Cl)cc2)CO3)ccn1` [(R) I-48, 4-(3-(4-chlorobenzyl)-3,4-dihydro-5-oxa-1,2,2a^1-triazaacenaphthylen-7-yl)-N-(1-methyl-1H-pyrazol-5-yl)pyridin-2-amine], with less than 0.02 nM; and `COc1ccc(C[C@H]2COc3cc(-c4ccnc(Nc5ccnn5C)n4)cc4nnc2n34)cc1` [(R) I-50, 4-(3-(4-methoxybenzyl)-3,4-dihydro-5-oxa-1,2,2a^1-triazaacenaphthylen-7-yl)-N-(1-methyl-1H-pyrazol-5-yl)pyrimidin-2-amine], with 0.02 nM.

For `Cn1nccc1Nc1cc(-c2cc3n4c(nnc4c2)[C@@H](Cc2ccc(F)c(F)c2)CO3)ccn1` [(R) I-54, 4-(3-(3,4-difluorobenzyl)-3,4-dihydro-5-oxa-1,2,2a^1-triazaacenaphthylen-7-yl)-N-(1-methyl-1H-pyrazol-5-yl)pyridin-2-amine], the 50% inhibitory concentration (IC50) is 0.03 nM.

As to `Cn1nccc1Nc1nccc(-c2cc3n4c(nnc4c2)[C@@H](Cn2cc(C4CC4)cn2)CCO3)n1` [(R) I-56, 4-(9-((4-cyclopropyl-1H-pyrazol-1-yl)methyl)-8,9-dihydro-7H-6-oxa-1,2,2a^1-triazabenzo[cd]azulen-4-yl)-N-(1-methyl-1H-pyrazol-5-yl)pyrimidin-2-amine], the IC50 is less than 0.02 nM. Compound `Cn1nccc1Nc1nccc(-c2cc3n4c(nnc4c2)[C@H](Cc2ccc(F)cc2)CCO3)n1` [(R) I-58, 4-(9-(4-fluorobenzyl)-8,9-dihydro-7H-6-oxa-1,2,2a^1-triazabenzo[cd]azulen-4-yl)-N-(1-methyl-1H-pyrazol-5-yl)pyrimidin-2-amine] had an IC50 of less than 0.02 nM. As for `COc1ccc(C[C@@H]2CC(=O)N(C)c3cc(-c4ccnc(Nc5ccnn5C)n4)cc4nnc2n34)cc1` [(R) I-62, 9-(4-methoxybenzyl)-6-methyl-4-(2-((1-methyl-1H-pyrazol-5-yl)amino)pyrimidin-4-yl)-8,9-dihydro-1,2,2a^1,6-tetraazabenzo[cd]azulen-7(6H)-one], the IC50 was less than 0.02 nM. Then `CCC[C@@H]1CC(=O)N(C)c2cc(-c3ccnc(Nc4ccnn4C)n3)cc3nnc1n23` [(R) I-64, 6-methyl-4-(2-((1-methyl-1H-pyrazol-5-yl)amino)pyrimidin-4-yl)-9-propyl-8,9-dihydro-1,2,2a^1,6-tetraazabenzo[cd]azulen-7(6H)-one], with 183 nM. On to `CN1C(=O)C[C@H](C2CC2)c2nnc3cc(-c4ccnc(Nc5ccnn5C)n4)cc1n23` [(R) I-65, 9-cyclopropyl-6-methyl-4-(2-((1-methyl-1H-pyrazol-5-yl)amino)pyrimidin-4-yl)-8,9-dihydro-1,2,2a^1,6-tetraazabenzo[cd]azulen-7(6H)-one], for which the IC50 is 0.66 nM. Then `Cn1nccc1Nc1nccc(-c2cc3n4c(nnc4c2)[C@H](Oc2ccc(F)cc2)CCO3)n1` [(R) I-66, 4-(9-(4-fluorophenoxy)-8,9-dihydro-7H-6-oxa-1,2,2a^1-triazabenzo[cd]azulen-4-yl)-N-(1-methyl-1H-pyrazol-5-yl)pyrimidin-2-amine], with 2.95 nM. Take `CN1C(=O)C[C@H](CC(F)(F)F)c2nnc3cc(-c4ccnc(Nc5ccnn5C)n4)cc1n23` [(R) I-71, 6-methyl-4-(2-((1-methyl-1H-pyrazol-5-yl)amino)pyrimidin-4-yl)-9-(2,2,2-trifluoroethyl)-8,9-dihydro-1,2,2a^1,6-tetraazabenzo[cd]azulen-7(6H)-one]: the IC50 was 0.655 nM. The value for `COc1ccc(C[C@@H]2CC(=O)N(C)c3cc(-c4ccnc(Nc5ccnn5C)c4)cc4nnc2n34)c(F)c1` [(R) I-74, 9-(2-fluoro-4-methoxybenzyl)-6-methyl-4-(2-((1-methyl-1H-pyrazol-5-yl)amino)pyridin-4-yl)-8,9-dihydro-1,2,2a^1,6-tetraazabenzo[cd]azulen-7(6H)-one] was less than 0.02 nM; that for `CC(C)C[C@@H]1CC(=O)N(C)c2cc(-c3ccnc(Nc4ccnn4C)c3)cc3nnc1n23` [(R) I-75, 9-isobutyl-6-methyl-4-(2-((1-methyl-1H-pyrazol-5-yl)amino)pyridin-4-yl)-8,9-dihydro-1,2,2a^1,6-tetraazabenzo[cd]azulen-7(6H)-one] was 3.22 nM.
